This passage reports MIC, Time and Activity results from ChEMBL document CHEMBL5236579, “Hydrophobicity Determines the Bacterial Killing Rate of α-Helical Antimicrobial Peptides and Influences the Bacterial Resistance Development” (J Med Chem, 2022).

Values after ≈ are worked out from the molar mass of the structure shown. Active and inactive are the calls of the source. No cut-off for these calls is given here. Where a SMILES comes first, the peptide text is derived from it.

Experiment [1] concerns Staphylococcus aureus. Put plainly: Antimicrobial activity against Staphylococcus aureus ATCC25923 by two fold broth microdilution method. Format: functional. On the technique in general: In broth dilution the organism is exposed to a series of concentrations in liquid medium.
Experiment [2] has as its system Staphylococcus aureus. The experiment can be described thus: Antimicrobial activity against clinical isolates Staphylococcus aureus by two fold broth microdilution method. Format: functional.
The test system of experiment [3] is Bacillus cereus. Put plainly: Antimicrobial activity against clinical isolates Bacillus cereus by two fold broth microdilution method. In kind it is functional.
In experiment [4] the test system is Escherichia coli. Put plainly: Antimicrobial activity against Escherichia coli ATCC27622 by two fold broth microdilution method. Format: functional.
Experiment [5] concerns Vibrio parahaemolyticus. The experiment can be described thus: Antimicrobial activity against Vibrio parahaemolyticus ATCC17802 by two fold broth microdilution method. In kind it is functional.
Experiment [6] concerns Vibrio parahaemolyticus. Put plainly: Bactericidal activity against Vibrio parahaemolyticus ATCC17802 assessed as killing rate at 0.5 X MIC by measuring time limit of detection by bacterial killing kinetic assay. Format: functional.
The test system of experiment [7] is Cell membrane. Put plainly: Induction of inner membrane permeabilization in Vibrio parahaemolyticus ATCC17802 assessed as increase in PI fluorescence intensity at 5 times MIC by propidium iodide penetration assay. In kind it is cell membranes. The note with it: time <= 200.0 min.
In experiment [8] the test system is Cell membrane. The experiment can be described thus: Induction of inner membrane permeabilization in Vibrio parahaemolyticus ATCC17802 at 5 times MIC measured upto 200 mins by propidium iodide penetration assay. Format: cell membranes.
Experiment [9] has as its system Cell membrane. The experiment can be described thus: Induction of inner membrane permeabilization in Vibrio parahaemolyticus ATCC17802 assessed as calcein leakage at 5 times MIC by calcein-AM leakage assay. In kind it is cell membranes. The note with it: time <= 200.0 min, TDE = time-dependent effect.

The MIC is the lowest concentration found to suppress growth. As for `CC[C@H](C)[C@H](NC(=O)[C@H](CC(C)C)NC(=O)[C@H](CCCNC(=N)N)NC(=O)[C@H](CC(C)C)NC(=O)[C@H](CC(C)C)NC(=O)[C@H](CC(C)C)NC(=O)[C@H](CCCCN)NC(=O)[C@H](Cc1ccccc1)NC(=O)[C@H](CC(C)C)NC(=O)CNC(=O)[C@@H](N)CC(C)C)C(=O)N[C@@H](CC(C)C)C(=O)N[C@@H](CCCCN)C(=O)NCC(=O)N[C@@H](Cc1ccccc1)C(=O)N[C@@H](CCCCN)C(=O)N[C@@H](CC(C)C)C(=O)O` (H-LGLFKLLLRLILKGFKL-OH), the minimum inhibitory concentration (MIC) in [1], in [2], in [3], in experiment [4] and in [5] was over 200 µg/mL each time.

Consider `CC[C@H](C)[C@H](NC(=O)[C@H](C)NC(=O)[C@H](CCCNC(=N)N)NC(=O)[C@H](C)NC(=O)[C@H](CC(C)C)NC(=O)[C@H](CCCCN)NC(=O)[C@H](CCCCN)NC(=O)[C@H](Cc1ccccc1)NC(=O)[C@H](CC(C)C)NC(=O)CNC(=O)[C@@H](N)CCCNC(=N)N)C(=O)N[C@@H](CCCCN)C(=O)N[C@@H](CCCCN)C(=O)NCC(=O)N[C@@H](Cc1ccccc1)C(=O)N[C@@H](CCCCN)C(=O)N[C@@H](CCCCN)C(=O)O` (H-RGLFKKLARAIKKGFKK-OH), for which the minimal inhibitory concentration (MIC) was found to be 9.38 µg/mL (≈ 4.71 µM) in experiment [1] (read-out: MIC); 18.8 µg/mL (≈ 9.42 µM) in [2]; 18.8 µg/mL (≈ 9.42 µM) in experiment [3]; 9.38 µg/mL (≈ 4.71 µM) in experiment [4]; 4.69 µg/mL (≈ 2.36 µM) in experiment [5]. Further, the Time in [6] is recorded as over 180 min. Further, the outcome in experiment [7] was Active.

Regarding `CC[C@H](C)[C@H](NC(=O)[C@H](CCCCN)NC(=O)[C@H](CCCNC(=N)N)NC(=O)[C@H](CCCNC(=N)N)NC(=O)[C@H](CC(C)C)NC(=O)[C@H](CCCCN)NC(=O)[C@H](CCCCN)NC(=O)[C@H](Cc1ccccc1)NC(=O)[C@H](CC(C)C)NC(=O)CNC(=O)[C@@H](N)CCCNC(=N)N)C(=O)N[C@@H](CCCCN)C(=O)N[C@@H](CCCCN)C(=O)NCC(=O)N[C@@H](Cc1ccccc1)C(=O)N[C@@H](CCCCN)C(=O)N[C@@H](CCCCN)C(=O)O` (H-RGLFKKLRRKIKKGFKK-OH), the MIC in experiment [1] (read-out: MIC) stood at 4.69 µg/mL (≈ 2.2 µM); in [2], 18.8 µg/mL (≈ 8.8 µM); in experiment [3], 9.38 µg/mL (≈ 4.4 µM); in [4], 18.8 µg/mL (≈ 8.8 µM); in experiment [5], 4.69 µg/mL (≈ 2.2 µM). Further, in experiment [6], the Time is over 180 min. Besides, the result in [7] was Active.

For the molecule `CC[C@H](C)[C@H](NC(=O)[C@H](CC(C)C)NC(=O)[C@H](CCCNC(=N)N)NC(=O)[C@H](CC(C)C)NC(=O)[C@H](CC(C)C)NC(=O)[C@H](CCCCN)NC(=O)[C@H](CCCCN)NC(=O)[C@H](Cc1ccccc1)NC(=O)[C@H](CC(C)C)NC(=O)CNC(=O)[C@@H](N)CCCNC(=N)N)C(=O)N[C@@H](CCCCN)C(=O)N[C@@H](CCCCN)C(=O)NCC(=O)N[C@@H](Cc1ccccc1)C(=O)N[C@@H](CCCCN)C(=O)N[C@@H](CCCCN)C(=O)O` (H-RGLFKKLLRLIKKGFKK-OH), the MIC in experiment [1] (read-out: MIC) amounted to 2.34 µg/mL (≈ 1.13 µM); in experiment [2], 18.8 µg/mL (≈ 9.04 µM); in [3], 9.38 µg/mL (≈ 4.52 µM); in [4], 4.69 µg/mL (≈ 2.26 µM); in experiment [5] it was 4.69 µg/mL (≈ 2.26 µM). The Time in experiment [6] stood at 60 min. The result in experiment [8] and in experiment [7] was Active. Also, in experiment [9], the Activity entry was “Tde”.

`CC[C@H](C)[C@H](NC(=O)[C@H](C)NC(=O)[C@H](CCCNC(=N)N)NC(=O)[C@H](C)NC(=O)[C@H](CC(C)C)NC(=O)[C@H](CCCCN)NC(=O)[C@H](CCCCN)NC(=O)[C@H](Cc1ccccc1)NC(=O)[C@H](CC(C)C)NC(=O)CNC(=O)[C@H](C)N)C(=O)N[C@@H](C)C(=O)N[C@@H](CCCCN)C(=O)NCC(=O)N[C@@H](Cc1ccccc1)C(=O)N[C@@H](CCCCN)C(=O)N[C@@H](C)C(=O)O` (H-AGLFKKLARAIAKGFKA-OH): the MIC in experiment [1] (read-out: MIC) was 9.38 µg/mL (≈ 5.24 µM); in [2] it was 18.8 µg/mL (≈ 10.5 µM); in experiment [3] it was 18.8 µg/mL (≈ 10.5 µM); in experiment [4], 9.38 µg/mL (≈ 5.24 µM); in [5] it was 4.69 µg/mL (≈ 2.62 µM). In addition, the Time in experiment [6] is given as over 180 min.

Regarding `CC[C@H](C)[C@H](NC(=O)[C@H](CC(C)C)NC(=O)[C@H](CCCNC(=N)N)NC(=O)[C@H](CC(C)C)NC(=O)[C@H](CC(C)C)NC(=O)[C@H](CC(C)C)NC(=O)[C@H](CC(C)C)NC(=O)[C@H](Cc1ccccc1)NC(=O)[C@H](CC(C)C)NC(=O)CNC(=O)[C@@H](N)CC(C)C)C(=O)N[C@@H](CC(C)C)C(=O)N[C@@H](CCCCN)C(=O)NCC(=O)N[C@@H](Cc1ccccc1)C(=O)N[C@@H](CCCCN)C(=O)N[C@@H](CC(C)C)C(=O)O` (H-LGLFLLLLRLILKGFKL-OH), the MIC in [1], in experiment [2], in [3], in [4] and in experiment [5] was over 200 µg/mL each time.

In the case of `CC[C@H](C)[C@H](NC(=O)[C@H](CCCCN)NC(=O)[C@H](CCCNC(=N)N)NC(=O)[C@H](CCCNC(=N)N)NC(=O)[C@H](CC(C)C)NC(=O)[C@H](CCCCN)NC(=O)[C@H](CCCCN)NC(=O)[C@H](Cc1ccccc1)NC(=O)[C@H](CC(C)C)NC(=O)CNC(=O)[C@H](CCCNC(=N)N)NC(=O)[C@@H](N)CCCNC(=N)N)C(=O)N[C@@H](CCCCN)C(=O)N[C@@H](CCCCN)C(=O)NCC(=O)N[C@@H](Cc1ccccc1)C(=O)N[C@@H](CCCCN)C(=O)N[C@@H](CCCCN)C(=O)N[C@H](C(=O)N[C@@H](Cc1ccccc1)C(=O)N[C@@H](CCCCN)C(=O)N[C@@H](CCCNC(=N)N)C(=O)N[C@@H](CC(C)C)C(=O)N1CCC[C@H]1C(=O)N1CCC[C@H]1C(=O)N[C@H](C(=O)NCC(=O)N[C@H](C(=O)NCC(=O)N[C@H](C(=O)N[C@@H](CO)C(=O)N[C@H](C(=O)N1CCC[C@H]1C(=O)N[C@@H](CC(C)C)C(=O)N[C@@H](C)C(=O)NCC(=O)N[C@@H](CCCNC(=N)N)C(=O)N[C@@H](CCCNC(=N)N)C(=O)O)[C@@H](C)CC)C(C)C)C(C)C)C(C)C)[C@@H](C)CC` (H-RRGLFKKLRRKIKKGFKKIFKRLPPVGVGVSIPLAGRR-OH), the MIC in [1] (read-out: MIC) was 4.69 µg/mL (≈ 1.07 µM); in [2], 9.38 µg/mL (≈ 2.13 µM); in [3], 4.69 µg/mL (≈ 1.07 µM); in [4], 9.38 µg/mL (≈ 2.13 µM); in experiment [5] it was 4.69 µg/mL (≈ 1.07 µM). Further, the Time in [6] is 120 min.

`CC[C@H](C)[C@H](NC(=O)[C@H](CCCCN)NC(=O)[C@H](CC(C)C)NC(=O)[C@H](C)NC(=O)CNC(=O)[C@H](CC(N)=O)NC(=O)[C@H](CC(C)C)NC(=O)[C@@H](NC(=O)[C@H](CCCCN)NC(=O)[C@H](CCCCN)NC(=O)[C@H](Cc1c[nH]c2ccccc12)NC(=O)[C@H](Cc1ccccc1)NC(=O)[C@H](CCCCN)NC(=O)[C@H](CCCNC(=N)N)NC(=O)[C@H](CCCNC(=N)N)NC(=O)[C@@H](N)[C@@H](C)O)C(C)C)C(=O)N[C@@H](C)C(=O)N1CCC[C@H]1C(=O)N[C@@H](Cc1ccccc1)C(=O)N[C@@H](CC(C)C)C(=O)N[C@@H](CC(C)C)C(=O)NCC(=O)O` (H-TRRKFWKKVLNGALKIAPFLLG-OH): the MIC in experiment [1] (read-out: MIC) was 2.34 µg/mL (≈ 0.915 µM); in [2], 9.38 µg/mL (≈ 3.67 µM); in experiment [3] it was 9.38 µg/mL (≈ 3.67 µM); in experiment [4], 9.38 µg/mL (≈ 3.67 µM); in experiment [5] it was 4.69 µg/mL (≈ 1.83 µM). For the same molecule, the Time in experiment [6] is on record as 15 min.

For the molecule `CN[C@H](CC(C)C)C(=O)N[C@H]1C(=O)N[C@@H](CC(N)=O)C(=O)N[C@H]2C(=O)N[C@H]3C(=O)N[C@H](C(=O)N[C@H](C(=O)O)c4cc(O)cc(O)c4-c4cc3ccc4O)[C@H](O)c3ccc(c(Cl)c3)Oc3cc2cc(c3O[C@@H]2O[C@H](CO)[C@@H](O)[C@H](O)[C@H]2O[C@H]2C[C@](C)(N)[C@H](O)[C@H](C)O2)Oc2ccc(cc2Cl)[C@H]1O` [VANCOMYCIN], the MIC in experiment [1] (read-out: MIC) is 0.59 µg/mL (≈ 0.407 µM); in [2] it was over 200 µg/mL; in [3] it was over 200 µg/mL; in [4], 75 µg/mL (≈ 51.8 µM); in [5] it was 75 µg/mL (≈ 51.8 µM).

`CC[C@H](C)[C@H](NC(=O)[C@H](C)NC(=O)[C@H](CCCNC(=N)N)NC(=O)[C@H](C)NC(=O)[C@H](CC(C)C)NC(=O)[C@H](CCCCN)NC(=O)[C@H](CCCCN)NC(=O)[C@H](Cc1ccccc1)NC(=O)[C@H](CC(C)C)NC(=O)CNC(=O)[C@H](C)N)C(=O)N[C@@H](CCCCN)C(=O)N[C@@H](CCCCN)C(=O)NCC(=O)N[C@@H](Cc1ccccc1)C(=O)N[C@@H](CCCCN)C(=O)N[C@@H](CC(C)C)C(=O)O` (H-AGLFKKLARAIKKGFKL-OH): the MIC in experiment [1] (read-out: MIC) is 4.69 µg/mL (≈ 2.48 µM); in [2], 18.8 µg/mL (≈ 9.92 µM); in [3], 9.38 µg/mL (≈ 4.96 µM); in experiment [4], 9.38 µg/mL (≈ 4.96 µM); in experiment [5], 4.69 µg/mL (≈ 2.48 µM). In addition, the Time in experiment [6] is listed as over 180 min. Also, the outcome in experiment [7] was Active.
